# Source: PubChem BioAssay (NCI)
#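 1) Cells in 96-well plates. 2) Compound, 48 h, 5 concentrations. 3) Linear interpolation between surrounding doses. 4) Unreached endpoint = highest concentration. TGI: total growth inhibition.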 Where a SMILES comes first, the peptide text is derived from it. [ ]: non-standard residue; d: D form. The star is where a group is joined. Hyp = O=C(O)[CH]1C[CH](O)CN1; Cbz = O=C(OCc1ccccc1)*
# Experiments:
# Test in all cases: NCI tumour cell line growth inhibition, 48 h
# [1] = system: MDA-MB-435
# [2] = system: UO-31 renal
# [3] = system: RXF 393 renal
# [4] = system: HCT-116 colon
# [5] = system: SF-295 CNS
# [6] = system: HCC-2998 colon
# [7] = system: SR leukemia
# [8] = system: T-47D breast
# [9] = system: NCI-H226 lung
# [10] = system: NCI/ADR-RES ovarian
# [11] = system: A498 renal
# [12] = system: DU-145 prostate
# [13] = system: UACC-62 melanoma
# [14] = system: OVCAR-3 ovarian
# [15] = system: UACC-257 melanoma
# [16] = system: EKVX NSCLC
Compound,TGI [1] [µM],TGI [2] [µM],TGI [3] [µM],TGI [4] [µM],TGI [5] [µM],TGI [6] [µM],TGI [7] [µM],TGI [8] [µM],TGI [9] [µM],TGI [10] [µM],TGI [11] [µM],TGI [12] [µM],TGI [13] [µM],TGI [14] [µM],TGI [15] [µM],TGI [16] [µM]
O=C(Cc1ccccc1)Nc1nc2ccc(Cl)cc2c2nc(-c3ccco3)nn12,> 100,> 100,59.7,> 100,> 100,> 100,> 77.2,> 100,> 82.7,> 100,> 100,> 100,> 100,> 100,> 100,> 100
NC(=O)CNC(=O)C1CC(O)CN1C(=O)C1CCCN1C(=O)OCc1ccccc1 (stereo not drawn) (Cbz-Pro-[Hyp]-Gly-NH2; configuration not given here),> 100,> 100,> 100,> 100,> 100,> 100,> 100,> 100,> 100,> 100,> 100,> 100,> 100,> 100,> 100,> 100
COc1cc(/C=C/C(=O)N[C@@H]2C(=O)N3[C@@H]2SC(C)(C)[C@@H]3C(=O)O)ccc1O,> 100,> 100,> 100,> 100,> 100,> 100,> 100,> 100,> 100,> 100,> 100,> 100,> 100,> 100,> 100,> 100
C=CCc1cccc(/C(O)=C/C(=O)/C=C/c2ccccc2Cl)c1O,> 100,32.7,75.8,> 54.3,> 87.7,> 100,16,> 100,> 75.6,45.9,45,> 100,43.3,76.3,> 70.4,> 100
Clc1ccc(C2=Cc3nc2c(-c2ccccc2)c2ccc([nH]2)c(-c2ccccc2)c2nc(c(-c4ccccc4)c4ccc([nH]4)c3-c3ccccc3)C=C2)cc1,> 62.5,> 62.5,> 62.5,> 62.5,> 62.5,> 62.5,> 62.5,> 62.5,> 62.5,> 62.5,> 62.5,> 62.5,> 62.5,> 62.5,> 62.5,> 62.5
CCOC(=O)/C=C/C1=C(Br)[C@@]2(C)CC[C@@H]3c4ccc(O)cc4CC[C@H]3[C@@H]2C1,28.8,30.4,29.5,26.6,29.2,28.8,18.5,16.5,30.2,27.9,32,19.1,19.4,20.5,26.8,30.7
COc1ccc(N2C(=O)C3c4[nH]c5ccc(OC)cc5c4C4CCC(c5ccccc5)CC4C3C2=O)cc1 (stereo unspecified),68.4,> 70.6,25,22.7,24.2,49.5,2.45,86.3,> 100,33.2,37.4,> 100,36.4,37,> 88.9,52
N#CC(C#N)[C@@H]1CCC=C(Sc2ccccc2)[C@H]1Sc1ccccc1,4.53,17.6,4.84,8.4,19.9,6.79,> 27.1,7.71,4.01,8.37,26.9,10.1,13.9,12.8,6.48,15.4
CCCCCCCCCCCCCCCCCCOC(COP(=O)(O)OCC1OC(n2cc(F)c(=O)[nH]c2=O)CC1O)COP(=O)(O)OCC1OC(n2ccc(N)nc2=O)C(O)C1O (stereo unspecified),> 100,> 100,49.6,> 100,> 100,> 70.5,> 100,> 100,> 100,> 100,> 100,> 100,> 100,> 100,> 100,> 100
COC(=O)C1=C(C(=O)OC)N(c2ccncc2)C(c2ccco2)=CC1c1ccccc1[N+](=O)[O-] (stereo unspecified),> 39.8,8.21,10.6,2.7,15.8,3.7,5.26,12.9,30.3,56.1,14.1,18,27,> 28.4,4.25,15.9
NC(=S)NN=C1Cc2ccccc2C1,> 100,> 100,> 100,> 100,> 100,> 100,> 100,> 100,> 100,> 100,> 100,> 100,> 100,> 100,> 100,> 100
CCOC(=O)n1ccc2c(C(=O)OC)c(C(=O)OC)cc(/C(=C/C(=O)OC)C(=O)OC)c21,> 100,> 100,> 100,> 100,> 100,> 100,> 100,> 100,> 100,> 100,> 100,> 100,> 100,> 100,> 100,> 100
COc1cc([N+](=O)[O-])cc2c1NC(=O)C2(C)SC (stereo unspecified),> 100,> 100,> 100,> 100,> 100,> 100,> 100,> 100,> 100,> 100,> 100,> 100,> 100,> 100,> 100,> 100
CN(C)c1cccc2c(S(=O)(=O)NCCCNCCN)cccc12,65.8,> 100,75,> 100,> 100,62.8,39.1,> 100,> 100,> 100,91,> 100,> 100,> 100,> 100,> 100
O=C1NC(=O)C23C(=O)NC(=O)C12C1C=CC3CC1 (stereo unspecified),> 10,> 10,> 10,> 10,> 10,> 10,> 10,> 10,> 10,> 10,> 10,> 10,> 10,> 10,> 10,> 10
O=C1c2ccccc2C(=O)c2c1sc1nc3ccccc3n21,4.37,3.89,3.31,3.25,3.04,3.79,> 100,9.02,21.2,4.7,23.3,3.13,3.51,9.34,3.64,4.6
N#CC(C#N)=C(N)/C(C#N)=C/c1ccc(O)c(O)c1,> 100,> 100,> 100,> 100,> 100,> 100,> 100,> 100,> 100,> 100,> 100,> 100,> 100,> 100,> 100,> 100
CC(C)C(=O)/C=C/c1ccc(Cl)cc1Cl,10,23.5,22.2,10,30.9,30,> 100,25.7,41,54.6,31.8,27.2,25.7,16.1,26,31
CNC(=O)OCC1=C(COC(=O)NC)CN(c2ccc(OC)cc2)C1,> 100,> 100,> 100,> 100,> 100,> 100,> 100,> 100,41.1,> 100,3.9,> 100,> 100,> 100,> 100,> 100
COc1ccccc1CC1(O)OC(=O)c2ccccc21 (stereo unspecified),> 100,> 100,> 100,> 100,> 100,> 100,> 100,> 100,> 100,> 100,> 100,> 100,> 100,> 100,> 100,> 100
C/C(=N\NC(N)=S)C(CN1CCCCC1)C(C1=C(O)c2ccccc2OC1)c1ccccc1 (stereo unspecified),> 100,> 100,> 100,> 100,> 100,> 100,> 100,> 100,> 100,> 100,> 100,> 100,> 100,> 100,> 100,> 100
